Measured values published in patent US20070136828A1, “Methods of using molecules related to organic cation transporter 3 (oct3) for treating depression, anxiety neuroses, drug dependencies, and other similar mental disorders” (Biostation Inc., priority 2004, published 2007).
Like-named read-outs stand apart in the source and are kept apart here.

Legend:
OCT3/uptake2 = target: T1, OCT3/uptake2 (Homo sapiens, UniProt O75751); details: cited from earlier work
T1 sequence (O75751 1-556): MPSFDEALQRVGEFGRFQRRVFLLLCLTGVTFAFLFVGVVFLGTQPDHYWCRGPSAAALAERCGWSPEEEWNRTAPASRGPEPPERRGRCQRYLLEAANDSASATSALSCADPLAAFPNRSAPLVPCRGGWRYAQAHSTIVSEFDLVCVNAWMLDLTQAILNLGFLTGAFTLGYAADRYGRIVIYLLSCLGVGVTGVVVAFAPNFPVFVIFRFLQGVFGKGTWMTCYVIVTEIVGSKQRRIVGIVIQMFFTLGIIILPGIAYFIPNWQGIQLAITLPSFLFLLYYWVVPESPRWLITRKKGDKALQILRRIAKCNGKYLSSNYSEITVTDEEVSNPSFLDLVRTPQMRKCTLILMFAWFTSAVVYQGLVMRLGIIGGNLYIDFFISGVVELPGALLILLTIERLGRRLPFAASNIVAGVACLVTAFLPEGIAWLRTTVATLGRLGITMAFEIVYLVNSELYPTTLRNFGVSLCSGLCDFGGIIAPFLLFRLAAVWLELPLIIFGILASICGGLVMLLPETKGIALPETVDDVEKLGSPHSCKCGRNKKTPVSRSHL

other OCT subtypes = details: cited from earlier work
[1] = intravenous administration; cited from earlier work
Male ddY mice [2] = assay: Forced swimming test (depression model); assay type: in vivo
Experimental: Male ddY mice were used for the experiments. Mice raised for three or more days after purchase were made to swim for 300 seconds in a beaker (15 cm in diameter, 20 cm in height). Immobility time was measured, and the mice were divided into groups such that the average immobility time was approximately the same for each group. The day after swimming an antisense (OCT3 antisense) constructed from an OCT3 gene sequence was continuously infused into the cerebral ventricle, using an osmotic pump according to the reported literature (J. Chem. Neuroanat. 2000. 20: 375-87). Further, a group infused with Ringer's solution, which is an antisense solvent (the solvent group) and a group infused with a cDNA sequence with the same bases as the antisense but in a random sequence without homology to known genes (the scrambled OCT3 antisense group) were also prepared. One week after infusion the mice were returned to the beakers and made to swim for 300 seconds, and immobility time was measured. Imipramine anti-depressant was intraperitoneally administered 30 minutes before the beginning of the test.

[3] = target: T2, kidney derived Caki-1 cells, which contain OCT3 (Homo sapiens, UniProt O75751); details: cited from earlier work
T2 construct: kidney derived Caki-1 cells, which contain OCT3; endogenous in cells; host or cells: Caki-1
T2 sequence (O75751 1-556): T1 sequence (O75751 1-556)

[4] = test system: cultured porcine tubular cells; details: cited from earlier work
Male ddY mice [5] = details: anti-depressant administration: chlordiazepoxide 100 mg/kg, imipramine 16 mg/kg; Behav Brain Res. 73, 43-46, 1996; cited from earlier work

Question: Which results are given for `CCN1C(=Cc2cc(C)nc(-c3ccccc3)[n+]2C)C=Cc2ccccc21.[Cl-]` [cyanine 863]?
Answer: inhibition of OCT3/uptake2 (OCT3/uptake2): potent OCT3 inhibitors; inhibitory activity towards other OCT subtypes (other OCT subtypes): potent inhibitory activity

Question: What does the source list for `CC(C)N1C=CC(=Cc2ccc3ccccc3[n+]2C(C)C)c2ccccc21` [disprocynium24, 1,1′-diisopropyl-2,4′-cyanine]?
Answer: inhibition of OCT3/uptake2 (OCT3/uptake2): potent inhibitor; inhibition of OCT3/uptake2 (OCT3/uptake2; listed as disprocynium 24): potent OCT3 inhibitors; excretion of monoamine into urine [1]: strongly suppresses; inhibitory activity towards other OCT subtypes (other OCT subtypes): potent inhibitory activity

Question: With `COc1cc(C(O)CN)ccc1O` (stereo not shown) [normetanephrine] as the molecule, how does the “immobility time (average value)” value (Male ddY mice [2]; normetanephrine 2.5 μg/0.25 μl/hr continuous infusion to cerebral ventricle, one week, FIG. 2) read?
Answer: The value was 108 ± 29 s.

Question: Which “uptake of MPP+” value [3] does the source give for `C[C@]12C[C@H](O)[C@H]3[C@@H](CCC4=CC(=O)CC[C@@]43C)[C@@H]1CC[C@@H]2C(=O)CO` [Corticosterone, corticosterone] here?
Answer: Its value is “suppresses”.

Question: Which noradrenaline uptake [4] does the source give for `CC(=O)[C@H]1CC[C@H]2[C@@H]3CCC4=CC(=O)CC[C@]4(C)[C@H]3CC[C@]12C` [progesterone] here?
Answer: Its noradrenaline uptake is “significantly reduce”.

Question: For `CCN1/C(=C/c2ccc3ccccc3[n+]2CC)C=Cc2ccccc21.[I-]` [decynium 22], which “inhibition of OCT3/uptake2” value (OCT3/uptake2) is on record?
Answer: Its value is “potent OCT3 inhibitors”.

Question: What about the “inhibitory activity towards other OCT subtypes” value (other OCT subtypes) of the same molecule?
Answer: Its value is “potent inhibitory activity”.

Question: What does the source list for `CN(C)CCCN1c2ccccc2CCc2ccccc21` [imipramine]?
Answer: immobility time (average value) (Male ddY mice [2]; imipramine 4 mg/kg intraperitoneally 30 minutes before test, 300 seconds of swimming, FIG. 1B): 245 ± 15 s; condition of immobility (Male ddY mice [5]): shortened
